From patent US8686143B2, “Compounds useful as inhibitors of Janus kinases” (Vertex Pharmaceuticals Incorporated, priority 2007, dated 2014) come the findings set out here.

One may read the Ki as the dissociation constant of the complex between target and ligand, obtained from inhibition or displacement.

The experiment deals with T1, JAK3 (Homo sapiens, UniProt P52333).
T1 sequence (P52333 1-1124): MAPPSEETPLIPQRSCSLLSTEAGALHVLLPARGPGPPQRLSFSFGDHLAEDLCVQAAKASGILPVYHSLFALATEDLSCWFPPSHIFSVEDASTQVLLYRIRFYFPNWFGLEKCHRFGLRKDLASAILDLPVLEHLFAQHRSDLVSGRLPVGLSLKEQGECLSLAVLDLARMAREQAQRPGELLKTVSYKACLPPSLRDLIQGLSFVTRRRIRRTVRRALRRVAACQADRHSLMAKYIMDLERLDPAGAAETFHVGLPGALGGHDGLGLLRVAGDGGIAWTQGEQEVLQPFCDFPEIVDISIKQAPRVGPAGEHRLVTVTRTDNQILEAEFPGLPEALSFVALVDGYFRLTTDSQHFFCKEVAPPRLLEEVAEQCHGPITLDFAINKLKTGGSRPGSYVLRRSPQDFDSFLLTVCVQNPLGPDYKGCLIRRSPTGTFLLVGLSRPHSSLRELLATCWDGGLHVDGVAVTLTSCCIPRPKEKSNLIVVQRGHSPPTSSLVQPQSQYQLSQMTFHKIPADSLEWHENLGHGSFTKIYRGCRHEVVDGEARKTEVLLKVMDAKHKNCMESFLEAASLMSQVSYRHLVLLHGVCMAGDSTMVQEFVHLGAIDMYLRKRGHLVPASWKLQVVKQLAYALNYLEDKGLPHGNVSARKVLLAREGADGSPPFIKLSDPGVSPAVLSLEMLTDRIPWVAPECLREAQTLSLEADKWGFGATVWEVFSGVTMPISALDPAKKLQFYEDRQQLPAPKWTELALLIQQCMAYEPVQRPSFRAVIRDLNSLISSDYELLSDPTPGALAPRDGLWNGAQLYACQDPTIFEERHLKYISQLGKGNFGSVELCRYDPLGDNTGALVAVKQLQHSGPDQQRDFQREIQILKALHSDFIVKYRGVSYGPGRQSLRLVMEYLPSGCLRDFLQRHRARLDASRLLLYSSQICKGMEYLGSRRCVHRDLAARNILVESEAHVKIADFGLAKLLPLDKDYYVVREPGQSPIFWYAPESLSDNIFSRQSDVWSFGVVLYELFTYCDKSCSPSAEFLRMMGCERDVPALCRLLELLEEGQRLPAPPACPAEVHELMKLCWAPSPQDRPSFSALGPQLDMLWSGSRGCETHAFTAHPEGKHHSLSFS
Briefly: JAK3 Inhibition Assay (33P incorporation into poly(Glu)4Tyr). It is filed as biochemical. Particulars: for Ki: 1 nM JAK3, 5 μM ATP, 1 μM poly(Glu)4Tyr, 25° C. Put shortly:
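Run at 25°C for 20 min with 1 nM enzyme in pH 7.4 HEPES buffer with MgCl2, DTT, NaCl and BSA. Final substrates were 5 μM ATP (33P-labelled) and 1 μM poly(Glu)4Tyr. Stopped with TCA, filtered, and 33P incorporation counted by scintillation.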

For the compound `CC(C)[C@@H](Nc1ccnc(-c2ccc(O)cc2)n1)C(=O)NCC(F)(F)F` [Compound 167], the Ki is 1 to 10 µM. Compound `CC(C)(Nc1nc(-c2c[nH]c(C(=O)NC3CC3)c2)ncc1F)C(=O)NCC(F)(F)F` [Compound 94] yielded a Ki of 1 to 10 µM. On the same count and under the same terms, the result for `CNC(=O)c1cc(-c2ncc(F)c(N[C@@H](C(=O)NCC(F)(F)F)C(C)C)n2)c[nH]1` [Compound 103] reads 10 to 50 µM.

For `C[C@H](Nc1nc(-c2ccc(N)nc2)ncc1F)C(=O)NCC(F)(F)F` [Compound 6], the Ki was in the range of 10 to 50 µM. With `O=C(NCC(F)(F)F)[C@H]1CCCN1c1nc(-c2c[nH]c3ccc(Cl)cc23)ncc1F` [Compound 157], the “inhibition of JAK3 at concentrations of 50 μM” value (from here on “inhibition of JAK3”) is listed as “did not inhibit”.

With `CC(C)[C@@H](Nc1nc(-c2c[nH]c3ccc(Cl)cc23)ncc1F)C(=O)NCC(F)(F)F` [Compound 160], the “inhibition of JAK3” value is “did not inhibit”.

As for `CC(C)[C@@H](Nc1ccnc(-c2ccc3c(c2)OCCO3)n1)C(=O)NCC(F)(F)F` [Compound 146], the “inhibition of JAK3” value is “did not inhibit”. Take `Nc1nc2ccc(-c3ncc(F)c(N4CCC[C@@H]4C(=O)NCC(F)(F)F)n3)cc2s1` [Compound 90]: the “inhibition of JAK3” value is recorded as “did not inhibit”. Consider `CC(C)C(Nc1nc(-c2c[nH]c(C(=O)N3CCCC3)c2)ncc1F)C(=O)NCC(F)(F)F` (centres unmarked) [Compound 107], for which the Ki lay in the range of 1 to 10 µM. On to `C[C@H](Nc1nc(-c2ccncc2)ncc1F)C(=O)NCC(F)(F)F` [Compound 3], for which the “inhibition of JAK3” value is “did not inhibit”.

In turn, `O=C(NCC(F)(F)F)[C@H]1CCCN1c1ccnc(-c2ccc3ncsc3c2)n1` [Compound 155] displayed a Ki not above 1 µM. Take `COc1ccc(-c2nccc(N3CCC[C@@H]3C(=O)NCC(F)(F)F)n2)cn1` [Compound 62]: the “inhibition of JAK3” value is reported as “did not inhibit”. `CC(C)C(Nc1nc(-c2c[nH]c(C(=O)N3CC=CC3)c2)ncc1F)C(=O)NCC(F)(F)F` (centres unmarked) [Compound 108] displayed a Ki not above 1 µM. In the case of `C[C@H](Nc1nc(-c2c[nH]c(C(=O)O)c2)ncc1F)C(=O)NCC(F)(F)F` [Compound 7], the “inhibition of JAK3” value was “did not inhibit”. With `COc1ccc(-c2nccc(N3CCC[C@@H]3C(=O)NCC(F)(F)F)n2)cc1` [Compound 150], the “inhibition of JAK3” value is recorded as “did not inhibit”. For the compound `CC(C)(Nc1ccnc(-c2ccc3ncccc3c2)n1)C(=O)NCC(F)(F)F` [Compound 75], the Ki is not above 1 µM.

In turn, `Nc1cccc(Nc2nc(N)n(-c3ncc(F)c(N4CCCC4C(=O)NCC(F)(F)F)n3)n2)c1` (centres unmarked) [Compound 57] registered a Ki of 1 to 10 µM. Compound `CC(C)(Nc1nc(-c2ccc3c(c2)OCO3)ncc1F)C(=O)NCC(F)(F)F` [Compound 67] gave a Ki of 1 to 10 µM.

`CC(C)NC(=O)c1cc(-c2nccc(N3CCC[C@@H]3C(=O)NCC(F)(F)F)n2)c[nH]1` [Compound 122]: the “inhibition of JAK3” value is “did not inhibit”. `COc1ccc(Nc2nc(N)n(-c3ncc(F)c(N[C@@H](C(=O)NCC(F)(F)F)C(C)C)n3)n2)cc1` [Compound 43] yielded a Ki of 1 to 10 µM. As to `CC(C)[C@@H](Nc1ccnc(-c2ccc3c(c2)OCO3)n1)C(=O)NCC(F)(F)F` [Compound 71], the Ki was in the range of 10 to 50 µM. On the same count and under the same terms, the result for `O=C(NCc1ccccc1)c1cc(-c2nccc(N3CCC[C@@H]3C(=O)NCC(F)(F)F)n2)c[nH]1` [Compound 121] reads 1 to 10 µM; that for `CC(C)NC(=O)c1cc(-c2ncc(F)c(NC(C)(C)C(=O)NCC(F)(F)F)n2)c[nH]1` [Compound 96], 10 to 50 µM. In turn, `COc1ccc(Nc2nc(N)n(-c3ncc(F)c(N4CCC[C@@H]4C(=O)NCC(F)(F)F)n3)n2)cc1` [Compound 39] yielded a Ki of 1 to 10 µM. On the same count and under the same terms, the result for `CC(C)(Nc1ccnc(-c2ccc3nccnc3c2)n1)C(=O)NCC(F)(F)F` [Compound 163] reads not above 1 µM; that for `CC(C)(Nc1nc(-c2ccc3nc(N)sc3c2)ncc1F)C(=O)NCC(F)(F)F` [Compound 66], 1 to 10 µM.

With `O=C(NCC(F)(F)F)[C@H]1CCCN1c1nc(-c2cccnc2)ncc1F` [Compound 23], the “inhibition of JAK3” value was “did not inhibit”. Consider `O=C(NCC(F)(F)F)[C@@H]1CCCN1c1nc(-c2ccc(F)nc2)ncc1F` [Compound 25], for which the “inhibition of JAK3” value is on record as “did not inhibit”. In turn, `COc1ccc(Nc2nc(N)n(-c3ncc(F)c(NCCC(=O)NCC(F)(F)F)n3)n2)cc1` [Compound 50] gave a Ki of 1 to 10 µM. In the case of `O=C(NCC(F)(F)F)[C@H]1CCCN1c1nc(-c2ccc3c(c2)OCCO3)ncc1F` [Compound 153], the “inhibition of JAK3” value is reported as “did not inhibit”.

Regarding `CC(C)[C@@H](Nc1ccnc(-c2ccc3nc(N)sc3c2)n1)C(=O)NCC(F)(F)F` [Compound 73], the Ki lay within 1 to 10 µM. `CC(C)(Nc1ccnc(-c2c[nH]c3ccc(Cl)cc23)n1)C(=O)NCC(F)(F)F` [Compound 158] came in with a Ki of 1 to 10 µM. Regarding `COc1ccc(-c2ncc(F)c(N3CCC[C@@H]3C(=O)NCC(F)(F)F)n2)cn1` [Compound 91], the “inhibition of JAK3” value is recorded as “did not inhibit”. `Nc1ncccc1-c1ncc(F)c(N2CC(C(=O)NCC(F)(F)F)C2)n1` [Compound 32] had a Ki of 1 to 10 µM. `O=C(NCC(F)(F)F)[C@H]1CCCN1c1nc(-c2ccc3ncsc3c2)ncc1F` [Compound 141] displayed a Ki of 1 to 10 µM.

Take `CC(C)(Nc1nc(-c2c[nH]c(C(=O)NCc3ccccc3)c2)ncc1F)C(=O)NCC(F)(F)F` [Compound 95]: the “inhibition of JAK3” value is given as “did not inhibit”. Consider `CC(C)[C@@H](Nc1ccnc(-c2c[nH]c(C(=O)N3CC=CC3)c2)n1)C(=O)NCC(F)(F)F` [Compound 114], for which the Ki was not above 1 µM. `CC(C)[C@@H](Nc1nc(-c2ccc3ncccc3c2)ncc1F)C(=O)NCC(F)(F)F` [Compound 77] registered a Ki of 1 to 10 µM.
